Experimental data as given in patent US4585866A, “Treatment of migraine with substituted tropyl benzoate derivatives” (Merrell Dow Pharmaceuticals Inc., priority 1984, dated 1986).

Columns and labels:
5-HT M-receptor [1] = molecular target: T1, 5-HT M-receptor (Oryctolagus cuniculus, UniProt A0A5F9C9J3); assay: pA2 against 5-HT in isolated rabbit heart; assay type: cell-based; settings: isolated rabbit heart; negative log of molar concentration of antagonist reducing effect of twice the ED50 of 5-HT to that of the ED50; read-out: pA2 5-HT (converted)
T1 construct: determining their pA2 values in the isolated rabbit heart; from tissue; host or cells: isolated rabbit heart (receptor on the cardiac neurones)
T1 sequence (A0A5F9C9J3 1-494): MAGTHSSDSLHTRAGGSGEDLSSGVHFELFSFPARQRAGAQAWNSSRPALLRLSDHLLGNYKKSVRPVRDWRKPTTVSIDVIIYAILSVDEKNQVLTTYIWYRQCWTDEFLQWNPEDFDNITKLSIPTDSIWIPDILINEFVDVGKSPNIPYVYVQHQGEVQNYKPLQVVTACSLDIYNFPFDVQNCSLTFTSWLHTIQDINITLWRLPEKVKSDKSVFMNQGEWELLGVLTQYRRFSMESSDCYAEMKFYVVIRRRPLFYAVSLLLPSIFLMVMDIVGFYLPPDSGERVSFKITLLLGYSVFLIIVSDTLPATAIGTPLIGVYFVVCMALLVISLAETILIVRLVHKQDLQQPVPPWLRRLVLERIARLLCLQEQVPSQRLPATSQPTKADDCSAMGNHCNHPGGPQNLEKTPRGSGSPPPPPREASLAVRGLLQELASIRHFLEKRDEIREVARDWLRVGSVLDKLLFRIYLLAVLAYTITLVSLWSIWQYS
Method: (§1) The activity of the compounds against 5-HT can be assessed by determining their pA2 values in the isolated rabbit heart as described by J. R. Fozard et al, Eur. J. Pharmacol., 59, 195-210 (1979). In the method described, the molar concentration of antagonist which reduces the effects of twice the ED50 of 5-HT to that of the ED50 in the absence of antagonist is determined. The pA2 value is the negative logarithm of said molar concentrations.

guinea-pig taenia caeci = assay: Inhibition of standard response to calcium, guinea-pig taenia caeci; assay type: cell-based; settings: Cavia porcellus; guinea-pig taenia caeci in potassium-depolarized Tyrode solution, agonist calcium; read-out: Concentration to inhibit standard response to stimulants by 50% (IC50)
From the text: (§2) A selection of classical in vitro pharmacological test preparations (rat uterus, rat fundus, guinea-pig ileum, guinea-pig taenia caeci) were set up according to well-established procedures (see "Pharmacological Experiments on Isolated Preparations" Staff of the Department of Pharmacology, University of Edinburgh, Livingstone, Edinburgh 1970). Various spasmogens were used to elicit contraction of these tissues though mechanisms other than the 5-HT "M" receptor. The concentrations of tropyl 3,5-dimethoxybenzoate (A), tropyl 3,5-dimethylbenzoate (B) and tropyl 3,5-dichlorobenzoate (C) which reduced the effects of a submaximal dose of agonist by 50% were determined (IC50). The results are set forth in Table VI below in which the compounds are identified by the reference letters used above.
*In potassiumdepolarized Tyrode solution

[2] = molecular target: T2, rabbit heart (5-HT M receptor) (Oryctolagus cuniculus, UniProt A0A5F9C9J3); assay: Inhibition of standard response to 5-HT, rabbit heart; assay type: cell-based; settings: rabbit heart, agonist 5-HT; read-out: Concentration to inhibit standard response to stimulants by 50% (IC50)
T2 construct: RABBIT HEART; from tissue; host or cells: rabbit heart
T2 sequence (A0A5F9C9J3 1-494): T1 sequence (A0A5F9C9J3 1-494)
Method: as §1, §2

LD50 in the rat = settings: in vivo, iv
mouse = assay: LD50 in the mouse; assay type: in vivo; settings: as shown by LD50 values in the mouse and rat
LD50 in the mouse = assay type: in vivo; settings: in vivo, mouse
[3] = test system: Von Bezold-Jarisch Reflex (5-HT M-receptor); assay: Antagonism of the Von Bezold-Jarisch reflex evoked by 5-HT in the anaesthetized rat; assay type: in vivo, rat (male Sprague-Dawley); settings: comparison in words, i.v.
From the text: The activity of these compounds against 5-HT can be assessed in vivo by measurement of the effect of the compound on the Von Bezold-Jarisch Reflex induced by 5-HT injected intravenously into the rat (A. S. Paintal, Physiol. Rev. 53, 159-227, 1973). The transient caridac slowing arises from an increased afferent vagus activity arising from stimulation by 5-HT of sensory afferent fibres in and around the heart (see Example 3).
Antagonism of the Von Bezold-Jarisch reflex evoked by 5-HT in the anaesthetized rat was measured for tropyl 3,5-dimethoxybenzoate (A), tropyl 3,5-dimethylbenzoate (B) and tropyl 3,5-dichlorobenzoate (C) using the following method.
Male Sprague-Dawley rats weighing 250-300 g are anaesthetized with urethane, 1.25 g/kg injected intraperitoneally and set up for recording blood pressure and heart rate as described in J. R. Fozard et al, J. Cardiovas. Pharmacol. 2, 229-245 (1980). A submaximal dose of 5-HT ([…]) is given repeatedly into the cannulated jugular vein and changes in heart rate are quantified. Antagonists are given intravenously and the doses required to just inhibit the response to 5-HT (threshold dose) or to inhibit the response to 5-HT by 50% (ED50) are determined.

guinea-pig ileum = assay: Inhibition of standard response to carbachol, guinea-pig ileum; assay type: cell-based; settings: Cavia porcellus, carbachol agonist instead of acetylcholine, read-out: Concentration to inhibit standard response to stimulants by 50% (IC50)
From the text: as §2
**Carbachol agonist instead of acetylcholine

acute migraine attack = settings: slow intravenous injection, 10 mg; J. B. Hughes, Med. J. Aust. 1977; cited from earlier work
5-HT M-receptor [4] = molecular target: T1, 5-HT M-receptor; settings: cited from earlier work

Row | SMILES | Kb (5-HT M-receptor [1]) | IC50 (guinea-pig taenia caeci) | IC50 [2] | LD50 (LD50 in the rat) | toxicity in words (mouse) | LD50 (LD50 in the mouse; ip) | LD50 (LD50 in the mouse; iv) | LD50 (LD50 in the mouse; oral) | potency relative to metoclopramide [3] | IC50 (guinea-pig ileum) | relief of acute migraine attack (acute migraine attack) | potency as 5-HT M-receptor antagonist (5-HT M-receptor [4]; literature) | pA2 value (5-HT) (5-HT M-receptor [4]; reported by J. R. Fozard et al, Eur. J. Pharmacol. 1979 / 1978)
1 | Cc1cc(C)cc(C(=O)O[C@H]2C[C@H]3CC[C@@H](C2)N3C)c1 [tropyl 3,5-dimethylbenzoate] | 0.001 µM | 34.2 µM | 0.00103 µM | 9 mg/kg | relatively non-toxic | 47 mg/kg | 17 mg/kg | 116 mg/kg | many times more potent than metoclopramide | 9.59 µM | – | – | –
2 | CCN(CC)CCNC(=O)c1cc(Cl)c(N)cc1OC [metoclopramide] | – | – | – | – | – | – | – | – | – | – | immediate relief of acute migraine attack | potent 5-HT M-receptor antagonist | 7.2
